Laboratory results: the NIST ThermoML archive (doi:10.1016/j.jct.2015.08.033)

Test: mn = molality of the nth substance listed, in mol/kg
Conditions: 100 kPa, Liquid; for speed of sound: Frequency=3 MHz, Sing-around technique in a fixed-path interferometer; for mass density: Vibrating tube method

[Ba+2].[O-][Cl+3]([O-])([O-])[O-].[O-][Cl+3]([O-])([O-])[O-] [barium perchlorate] + CN(C)C=O
Conditions	mass density, 298.15 K [kg/m3]	mass density, 303.15 K [kg/m3]	mass density, 308.15 K [kg/m3]	mass density, 313.15 K [kg/m3]	mass density, 318.15 K [kg/m3]	speed of sound, 298.15 K [m/s]	speed of sound, 303.15 K [m/s]	speed of sound, 308.15 K [m/s]	speed of sound, 313.15 K [m/s]	speed of sound, 318.15 K [m/s]
m1 = 0.01339	947.432	942.667	937.889	933.096	928.287	1458.1	1438.9	1419.6	1400.4	1381.3
m1 = 0.02254	949.821	945.058	940.281	935.489	930.686	1458.7	1439.5	1420.2	1401.1	1381.9
m1 = 0.0331	952.562	947.81	943.03	938.243	933.442	1459.5	1440.2	1420.9	1401.8	1382.7
m1 = 0.04712	956.179	951.422	946.652	941.866	937.07	1459.9	1440.9	1421.7	1402.7	1383.7
m1 = 0.06582	960.992	956.235	951.468	946.686	941.893	1460.9	1441.9	1422.8	1403.8	1384.9
m1 = 0.08395	965.617	960.865	956.099	951.321	946.53	1461.8	1442.8	1423.8	1405	1386.1
m1 = 0.1061	971.226	966.477	961.715	956.94	952.153	1462.8	1444	1425.1	1406.3	1387.5
m1 = 0.1322	977.835	973.089	968.33	963.559	958.776	1464.1	1445.4	1426.6	1407.8	1389.2
m1 = 0.1588	984.508	979.766	975.008	970.24	965.461	1465.4	1446.8	1428	1409.4	1390.8
m1 = 0.1995	994.63	989.888	985.134	980.371	975.596	1467.4	1448.9	1430.3	1411.8	1393.3

O=S(=O)([O-])C(F)(F)F.O=S(=O)([O-])C(F)(F)F.[Ca+2] [calcium trifluoromethanesulfonate] + CC(=O)N(C)C
Conditions	mass density, 298.15 K [kg/m3]	mass density, 303.15 K [kg/m3]	mass density, 308.15 K [kg/m3]	mass density, 313.15 K [kg/m3]	mass density, 318.15 K [kg/m3]	speed of sound, 298.15 K [m/s]	speed of sound, 303.15 K [m/s]	speed of sound, 308.15 K [m/s]	speed of sound, 313.15 K [m/s]	speed of sound, 318.15 K [m/s]
m1 = 0.02187	940.927	936.332	931.736	927.121	922.5	1457	1437.3	1417.6	1398	1378.6
m1 = 0.03271	943.201	938.61	934.019	929.41	924.794	1457.4	1437.8	1418.2	1398.7	1379.3
m1 = 0.04637	946.038	941.451	936.856	932.246	927.636	1458	1438.5	1419	1399.4	1380
m1 = 0.06551	949.951	945.373	940.788	936.196	931.596	1458.5	1439	1419.5	1400.2	1380.9
m1 = 0.08271	953.447	948.878	944.3	939.716	935.124	1459	1439.6	1420.2	1400.9	1381.7
m1 = 0.1052	957.976	953.415	948.847	944.27	939.688	1459.6	1440.3	1421	1401.8	1382.7
m1 = 0.1305	963.026	958.471	953.91	949.342	944.771	1460.3	1441	1421.8	1402.7	1383.7
m1 = 0.1577	968.401	963.856	959.304	954.745	950.183	1460.9	1441.8	1422.7	1403.7	1384.8
m1 = 0.1977	976.212	971.679	967.14	962.594	958.045	1461.8	1442.8	1423.9	1405	1386.2
